In patent US4337199A, “Antibiotic β-lactam compounds, production thereof, and their use as antimicrobial agent” (Sanraku-Ocean Co., Ltd., priority 1978, dated 1982):
Values after ≈ are worked out from the molar mass of the structure shown. Like-named read-outs stand apart in the source and are kept apart here.

Columns and labels:
Assay in all cases: minimum inhibitory concentration, agar dilution assay
Type in all cases: cell-based
[1] = system: Proteus sp. P22; details: read-out: minimum inhibitory concentration
Description: (§1) The antibiotic activities shown in Tables I-1 to I-8 above were determined in the following manner.
(§2) The minimum inhibitory concentrations of the compounds of formula (I-a-1) or (I-b-1) in Tables I-1 to I-7 and the known compounds in Table I-8 on the various microorganisms shown in the above tables were measured by an agar dilution assay method using a brain heart infusion agar medium "Difco" (a product of Difco Laboratories Inc.)
(§3) A sample of the test compound was dissolved in sterile distilled water and diluted to prepare a two-fold dilution series of the compound solution. In a petri plate of 9 cm diameter, 1 ml of the compound solution was added to 9 ml of molten sterile heart infusion agar medium (Difco Laboratories Inc.) at about 60° C. to prepare the compound-containing agar plate. An overnight culture of each test organism indicated in the above table which was prepared by stationary cultivation in Trypto-Soy broth (Eiken Chemi. Co., Ltd.) at 35° C. for 18 to 20 hours, was diluted with the Trypto-Soy broth to give approximately 10^8 cells/ml and the diluted inoculum was inoculated onto the compound-containing agar plates. After cultivating the plates at 35° C. for 20 hours, the growth of the organism was observed. The minimum concentration of the compound at which no growth of the microorganism was noted was determined, and defined as the minimum inhibitory concentration of the test compound.

[2] = system: Escherichia coli K-12; details: read-out: minimum inhibitory concentration
Description: as §1, §2, §3

[3] = system: Alcaligenes faecalis A 1; details: read-out: minimum inhibitory concentration
Description: as §1, §2, §3

[4] = system: Proteus rettgeri P7; details: Providencia rettgeri, read-out: minimum inhibitory concentration
Description: as §1, §2, §3

[5] = system: Bacillus subtilis ATCC 6633; details: read-out: minimum inhibitory concentration
Description: as §1, §2, §3

[6] = system: Klebsiella pneumoniae K-13; details: read-out: minimum inhibitory concentration
Description: as §1, §2, §3

[7] = system: Staphylococcus epidermidis; details: read-out: minimum inhibitory concentration
Description: as §1, §2, §3

[8] = system: Pseudomonas aeruginosa IFO3445; details: read-out: minimum inhibitory concentration
Description: as §1, §2, §3

[9] = system: Staphylococcus aureus Smith; details: read-out: minimum inhibitory concentration
Description: as §1, §2, §3

[10] = system: Citrobacter freundii GN 346; details: read-out: minimum inhibitory concentration
Description: as §1, §2, §3

[11] = system: Proteus mirabilis P6; details: read-out: minimum inhibitory concentration
Description: as §1, §2, §3

[12] = system: Pseudomonas aeruginosa NCTC10490; details: read-out: minimum inhibitory concentration
Description: as §1, §2, §3

[13] = system: Serratia marcescens T55; details: read-out: minimum inhibitory concentration
Description: as §1, §2, §3

[14] = system: Staphylococcus aureus Russell; details: read-out: minimum inhibitory concentration
Description: as §1, §2, §3

[15] = system: Sarcina lutea; details: Micrococcus luteus, read-out: minimum inhibitory concentration
Description: as §1, §2, §3

[16] = system: Enterobacter aerogenes E19; details: Klebsiella aerogenes, read-out: minimum inhibitory concentration
Description: as §1, §2, §3

[17] = system: Serratia marcescens S18; details: read-out: minimum inhibitory concentration
Description: as §1, §2, §3

[18] = system: Proteus vulgaris GN76; details: read-out: minimum inhibitory concentration
Description: as §1, §2, §3

[19] = system: Escherichia coli RGN 823; details: read-out: minimum inhibitory concentration
Description: as §1, §2, §3

[20] = system: Providencia sp. P8; details: read-out: minimum inhibitory concentration
Description: as §1, §2, §3

[21] = system: Enterobacter cloacae 45; details: read-out: minimum inhibitory concentration
Description: as §1, §2, §3

[22] = system: Enterobacter sp. E8; details: read-out: minimum inhibitory concentration
Description: as §1, §2, §3

[23] = system: Staphylococcus aureus FDA 209P; details: FDA209P, read-out: minimum inhibitory concentration
Description: as §1, §2, §3

[24] = system: Comamonas terrigena B-996; details: read-out: minimum inhibitory concentration
Description: as §1, §2, §3

[25] = agar dilution, 35° C., 20 hours
[26] = K12, agar dilution, 35° C., 20 hours
[27] = A1, agar dilution, 35° C., 20 hours
[28] = P7, agar dilution, 35° C., 20 hours
[29] = ATCC6633, agar dilution, 35° C., 20 hours
[30] = K13, agar dilution, 35° C., 20 hours
[31] = IFO3445, agar dilution, 35° C., 20 hours
[32] = GN346, agar dilution, 35° C., 20 hours
[33] = P6, agar dilution, 35° C., 20 hours
[34] = NCTC10490, agar dilution, 35° C., 20 hours
[35] = T55, agar dilution, 35° C., 20 hours
[36] = E19, agar dilution, 35° C., 20 hours
[37] = S18, agar dilution, 35° C., 20 hours
[38] = GN76, agar dilution, 35° C., 20 hours
[39] = RGN823, agar dilution, 35° C., 20 hours
[40] = SP.P8, agar dilution, 35° C., 20 hours
[41] = Enterobacter cloacae, 45, agar dilution, 35° C., 20 hours
[42] = SP.E8, agar dilution, 35° C., 20 hours
[43] = B996, agar dilution, 35° C., 20 hours

CC(O)C1C(=O)N2C(C(=O)O)=C(Sc3ccccc3)CC12 (stereo not drawn)
MIC [1, 25]: > 100 µg/mL | MIC [2, 26]: 3.13 µg/mL (≈ 10.3 µM) | MIC [3, 27]: 1.56 µg/mL (≈ 5.11 µM) | MIC [4, 28]: 100 µg/mL (≈ 327 µM) | MIC [5, 29]: 0.013 µg/mL (≈ 0.0426 µM) | MIC [6, 30]: > 100 µg/mL | MIC [7, 25]: 0.013 µg/mL (≈ 0.0426 µM) | MIC [8, 31]: 50 µg/mL (≈ 164 µM) | MIC [9, 25]: 0.1 µg/mL (≈ 0.327 µM) | MIC [10, 32]: 100 µg/mL (≈ 327 µM) | MIC [11, 33]: 12.5 µg/mL (≈ 40.9 µM) | MIC [12, 34]: 50 µg/mL (≈ 164 µM) | MIC [13, 35]: 100 µg/mL (≈ 327 µM) | MIC [14, 25]: 0.013 µg/mL (≈ 0.0426 µM) | MIC [15, 25]: < 0.007 µg/mL | MIC [16, 36]: 12.5 µg/mL (≈ 40.9 µM) | MIC [17, 37]: 100 µg/mL (≈ 327 µM) | MIC [18, 38]: > 100 µg/mL | MIC [19, 39]: 25 µg/mL (≈ 81.9 µM) | MIC [20, 40]: 3.13 µg/mL (≈ 10.3 µM) | MIC [21, 41]: 12.5 µg/mL (≈ 40.9 µM) | MIC [22, 42]: 3.13 µg/mL (≈ 10.3 µM) | MIC [23, 25]: < 0.007 µg/mL | MIC [24, 43]: < 0.007 µg/mL

CCC1C(=O)N2C(C(=O)[O-])=C(Sc3ccccc3)CC12.[Na+] (stereo not drawn)
MIC ([1]; 20 h): 75 µg/mL | MIC ([2]; K12, 20 h): 37.5 µg/mL | MIC ([3]; A1, 20 h): 4.7 µg/mL | MIC ([4]; P7, 20 h): 75 µg/mL | MIC ([5]; ATCC6633, 20 h): 0.07 µg/mL | MIC ([6]; K13, 20 h): > 150 µg/mL | MIC ([7]; 20 h): < 0.01 µg/mL | MIC ([8]; IFO3445, 20 h): 18.8 µg/mL | MIC ([9]; 20 h): 0.1 µg/mL | MIC ([10]; GN346, 20 h): 150 µg/mL | MIC ([11]; P6, 20 h): 75 µg/mL | MIC ([12]; NCTC10490, 20 h): 4.7 µg/mL | MIC ([13]; T55, 20 h): 150 µg/mL | MIC ([14]; 20 h): < 0.01 µg/mL | MIC ([15]; 20 h): < 0.01 µg/mL | MIC ([16]; E19, 20 h): 150 µg/mL | MIC ([17]; S18, 20 h): 75 µg/mL | MIC ([18]; GN76, 20 h): 150 µg/mL | MIC ([19]; RGN823, 20 h): 37.5 µg/mL | MIC ([20]; SP.P8, 20 h): 18.8 µg/mL | MIC ([21]; Enterobacter cloacae, 45, 20 h): 150 µg/mL | MIC ([22]; SP.E8, 20 h): 75 µg/mL | MIC ([23]; 20 h): < 0.01 µg/mL | MIC ([24]; B996, 20 h): < 0.01 µg/mL

CC(O)C1C(=O)N2C(C(=O)O)=C(SC3CCCCC3)CC12 (stereo not drawn)
MIC [1, 25]: > 100 µg/mL | MIC [2, 26]: 12.5 µg/mL (≈ 40.1 µM) | MIC [3, 27]: 1.56 µg/mL (≈ 5.01 µM) | MIC [4, 28]: 100 µg/mL (≈ 321 µM) | MIC [5, 29]: 0.013 µg/mL (≈ 0.0417 µM) | MIC [6, 30]: > 100 µg/mL | MIC [7, 25]: 0.05 µg/mL (≈ 0.161 µM) | MIC [8, 31]: > 100 µg/mL | MIC [9, 25]: 0.05 µg/mL (≈ 0.161 µM) | MIC [10, 32]: 100 µg/mL (≈ 321 µM) | MIC [11, 33]: 6.25 µg/mL (≈ 20.1 µM) | MIC [12, 34]: 50 µg/mL (≈ 161 µM) | MIC [13, 35]: > 100 µg/mL | MIC [14, 25]: 0.013 µg/mL (≈ 0.0417 µM) | MIC [15, 25]: < 0.007 µg/mL | MIC [16, 36]: 50 µg/mL (≈ 161 µM) | MIC [17, 37]: > 100 µg/mL | MIC [18, 38]: > 100 µg/mL | MIC [19, 39]: 100 µg/mL (≈ 321 µM) | MIC [20, 40]: 25 µg/mL (≈ 80.3 µM) | MIC [21, 41]: 50 µg/mL (≈ 161 µM) | MIC [22, 42]: 12.5 µg/mL (≈ 40.1 µM) | MIC [23, 25]: 0.013 µg/mL (≈ 0.0417 µM) | MIC [24, 43]: < 0.007 µg/mL

CC(O)[C@H]1C(=O)N2C(C(=O)O)=C(SCCO)C[C@H]12 (stereo partly drawn) [R1 --OH*, R21 --CH2 CH2 OH]
MIC [1, 25]: 100 µg/mL (≈ 366 µM) | MIC [2, 26]: 3.13 µg/mL (≈ 11.5 µM) | MIC [3, 27]: 6.25 µg/mL (≈ 22.9 µM) | MIC [4, 28]: 50 µg/mL (≈ 183 µM) | MIC [5, 29]: 6.25 µg/mL (≈ 22.9 µM) | MIC [6, 30]: 25 µg/mL (≈ 91.5 µM) | MIC [7, 25]: 3.13 µg/mL (≈ 11.5 µM) | MIC [8, 31]: 12.5 µg/mL (≈ 45.7 µM) | MIC [9, 25]: 3.13 µg/mL (≈ 11.5 µM) | MIC [10, 32]: 12.5 µg/mL (≈ 45.7 µM) | MIC [11, 33]: 50 µg/mL (≈ 183 µM) | MIC [12, 34]: 12.5 µg/mL (≈ 45.7 µM) | MIC [13, 35]: 50 µg/mL (≈ 183 µM) | MIC [14, 25]: 3.13 µg/mL (≈ 11.5 µM) | MIC [15, 25]: 1.56 µg/mL (≈ 5.71 µM) | MIC [16, 36]: 12.5 µg/mL (≈ 45.7 µM) | MIC [17, 37]: 25 µg/mL (≈ 91.5 µM) | MIC [18, 38]: 50 µg/mL (≈ 183 µM) | MIC [19, 39]: 12.5 µg/mL (≈ 45.7 µM) | MIC [20, 40]: 6.25 µg/mL (≈ 22.9 µM) | MIC [21, 41]: 6.25 µg/mL (≈ 22.9 µM) | MIC [22, 42]: 6.25 µg/mL (≈ 22.9 µM) | MIC [23, 25]: 0.39 µg/mL (≈ 1.43 µM) | MIC [24, 43]: 0.1 µg/mL (≈ 0.366 µM)

CCC1C(=O)N2C(C(=O)O)=C(SCCO)CC12 (stereo not drawn) [R1 H, R21 --CH2 CH2 OH, sodium 3-(2-hydroxyethylthio)-6-ethyl-7-oxo-1-azabicylo[3.2.0]hept-2-ene-2-carboxylate]
MIC [1, 25]: 50 µg/mL | MIC [2, 26]: 3.13 µg/mL | MIC [3, 27]: 1.56 µg/mL | MIC [4, 28]: 12.5 µg/mL | MIC [5, 29]: 0.1 µg/mL | MIC [6, 30]: 12.5 µg/mL | MIC [7, 25]: 0.2 µg/mL | MIC [8, 31]: 12.5 µg/mL | MIC [9, 25]: 0.1 µg/mL | MIC [10, 32]: 3.13 µg/mL | MIC [11, 33]: 12.5 µg/mL | MIC [12, 34]: 12.5 µg/mL | MIC [13, 35]: 12.5 µg/mL | MIC [14, 25]: 0.2 µg/mL | MIC [15, 25]: 0.1 µg/mL | MIC [16, 36]: 3.13 µg/mL | MIC [17, 37]: 6.25 µg/mL | MIC [18, 38]: 25 µg/mL | MIC [19, 39]: 12.5 µg/mL | MIC [20, 40]: 3.13 µg/mL | MIC [21, 41]: 6.25 µg/mL | MIC [22, 42]: 3.13 µg/mL | MIC [23, 25]: 0.05 µg/mL | MIC [24, 43]: 0.025 µg/mL
